From US4263427A, “Monensin urethane derivatives” (priority 1979, dated 1981)
Converted amounts (≈) assume the structure as drawn. Where two headings read alike, the source gives them in different places.

Experiments:
Bacillus sp. TA 27860 = test: Minimum Inhibitory Concentration, agarwell diffusion assay (Table 6); assay type: cell-based; conditions: for MIC: Bacillus, SP.TA27860, Bacillus sp. TA 27860, read-out: Minimum Inhibitory Concentration
Text: (§1) (a) Lowest twofold dilution giving zone of inhibition in the agarwell
(§2) (b) NRRL collection number, all the rest ate ATCC numbers.

Bacillus megaterium 8CU = test: as above; assay type: cell-based; conditions: for MIC: Priestia megaterium, 8CU, read-out: Minimum Inhibitory Concentration, Bacillus megaterium 8CU
Text: as §1, §2

[1] = test system: Streptococcus cellulosac 3313; test: as above; assay type: cell-based; conditions: for MIC: Streptococcus, 3313, read-out: Minimum Inhibitory Concentration, Streptococcus cellulosac 3313
Text: as §1, §2

[2] = test system: Streptococcus faecium 8043; test: as above; assay type: cell-based; conditions: for MIC: Enterococcus faecium, 8043, Streptococcus faecium 8043, read-out: Minimum Inhibitory Concentration
Text: as §1, §2

Bacillus subtilis 583 = test: as above; assay type: cell-based; conditions: Bacillus subtilis, 583, Bacillus subtilis 583 (NRRL), read-out: Minimum Inhibitory Concentration
Text: as §1, §2

[3] = test system: Paceilomyces variotl 25820; test: as above; assay type: cell-based; conditions: for MIC: read-out: Minimum Inhibitory Concentration, Paceilomyces variotl 25820
Text: as §1, §2

MycoBacterium phiel 355 = test: as above; assay type: cell-based; conditions: Mycobacterium, 355, read-out: Minimum Inhibitory Concentration, MycoBacterium phiel 355
Text: as §1, §2

Staph. aureus 6538 = test: as above; assay type: cell-based; conditions: for MIC: Staphylococcus aureus, 6538, read-out: Minimum Inhibitory Concentration, Staph. aureus 6538
Text: as §1, §2

Bacillus sp. E 27859 = test: as above; assay type: cell-based; conditions: for MIC: Bacillus, SP.E27859, Bacillus sp. E 27859, read-out: Minimum Inhibitory Concentration
Text: as §1, §2

Sarcina lutca 9341 = test: as above; assay type: cell-based; conditions: Sarcina, 9341, read-out: Minimum Inhibitory Concentration, Sarcina lutca 9341
Text: as §1, §2

Treponema hyodysenteriae = test: Activity against Treponema hyodysenteriae (MIC, blood agar plates); assay type: cell-based; conditions: 42° C., anaerobic
Text: Testing for activity against Treponema hyodysenteriae, a cause of swine dysentery consisted of inoculation of blood agar plates containing a series of two or fourfold dilutions of the monensin urethane derivatives with tenfold dilutions of the T. hyodysenteriae strain.

rumen fluid = conditions: control 100
[4] = Oral antihypertensive activity: blood pressure and heart rate (Table 9); assay type: in vivo; conditions: oral dose 10 mg/kg
Text: Compounds of formula I, and their pharmaceutically acceptable salts are orally active as antihypertensive agents.

Eimeria tenella = test: Anti-coccidial effect of monensin urethanes added to the feed of infected chickens (Table 7); assay type: in vivo; conditions: 125 ppm in feed; infected untreated control 3.0; less than 2.5 significant
Method: This test utilizes ten chickens per drug group. Ten chickens are employed as a weight control and ten chickens as an infected control. The drug is given 48 hours in advance of the infection. One gm. of the test drug is mixed in a mechanical mixer with a sufficient amount of chicken feed to result in the desired dosage. The infection consists of approximately 200,000 oocysts given orally by pipette. The tests lasts for eleven days and then the surviving birds are autopsied and examined for gross lesions in the ceca. The test birds are rated according to the number of survivors and the number of cecal lesions. The results are expressed as average degree of infection (A.D.I.). An average degree of infection of less than 2.5 is considered to be significant.

[5] = Brachyspira hyodysenteriae, 48 h

Compound | MIC (Bacillus sp. TA 27860) [µg/mL] | MIC (Bacillus megaterium 8CU) [µg/mL] | MIC [1] [µg/mL] | MIC [2] [µg/mL] | MIC (Bacillus subtilis 583) [µg/mL] | MIC [3] [µg/mL] | MIC (MycoBacterium phiel 355) [µg/mL] | MIC (Staph. aureus 6538) [µg/mL] | MIC (Bacillus sp. E 27859) [µg/mL] | MIC (Sarcina lutca 9341) [µg/mL] | MIC (Treponema hyodysenteriae; [5]) [µg/mL] | Rate of Gas Production, Percent Production of Control Fermentations (rumen fluid; 50 ppm) [%] | Total VFA, Percent Production of Control Fermentations (rumen fluid; 50 ppm) [%] | also measured
CCC1(C2OC(C3OC(O)(COC(=O)NC4CC4c4ccccc4)C(C)CC3C)CC2C)CCC(C2(C)CCC3(CC(O)C(C)C(C(C)C(OC)C(C)C(=O)O)O3)O2)O1 (stereo not drawn) [Monensin A, 2-(phenyl)-cyclopropyl urethane] | 0.4 (≈ 0.482 µM) | 0.8 (≈ 0.964 µM) | 12.5 (≈ 15.1 µM) | 0.2 (≈ 0.241 µM) | 0.8 (≈ 0.964 µM) | 6.3 (≈ 7.59 µM) | 3.1 (≈ 3.73 µM) | 3.1 (≈ 3.73 µM) | 0.4 (≈ 0.482 µM) | 0.8 (≈ 0.964 µM) | 0.4 (≈ 0.482 µM) |  |  | 
CCC1(C2OC(C3OC(O)(COC(=O)NCCc4ccccc4)C(C)CC3C)CC2C)CCC(C2(C)CCC3(CC(O)C(C)C(C(C)C(OC)C(C)C(=O)O)O3)O2)O1 (stereo not drawn) [Monensin A, 2-phenethylurethane] | 1.6 (≈ 1.96 µM) | 0.8 (≈ 0.978 µM) | 12.5 (≈ 15.3 µM) | 0.4 (≈ 0.489 µM) | 1.6 (≈ 1.96 µM) | 12.5 (≈ 15.3 µM) | 6.3 (≈ 7.7 µM) | 6.3 (≈ 7.7 µM) | 0.8 (≈ 0.978 µM) | 1.6 (≈ 1.96 µM) |  | 101.7 | 84.3 | Day of Maximum Change, Blood Pressure [4]: 5 days; Day of Maximum Change, Heart Rate [4]: 2 days; Maximum Change (%), Blood Pressure [4]: 15%; Maximum Change (%), Heart Rate [4]: 18%; Mean Blood Pressure at time of maximum effect ([4]; at time of maximum effect): 189 mm Hg; Mean Blood Pressure before treatment ([4]; before treatment): 223 mm Hg
COC(C(C)C(=O)O)C(C)C1OC2(CCC(C)(C3CCC(C)(C4OC(C5OC(O)(COC(=O)NC(C)c6ccccc6)C(C)CC5C)CC4C)O3)O2)CC(O)C1C [Monensin B, (R)-1-phenethylurethane] |  |  |  |  | 1.6 (≈ 1.99 µM) |  | 12.5 (≈ 15.5 µM) |  |  | 3.1 (≈ 3.86 µM) | 0.4 (≈ 0.497 µM) | 103.3 | 82.7 | Minimum Inhibitory Concentration (Bacillus sp. TA 27860; Bacillus sp. TA 27860, listed as Monensin B,(R)-1-phenethylurethane): 1.6 meg/ml; Minimum Inhibitory Concentration (Bacillus megaterium 8CU; Bacillus megaterium 8CU, listed as Monensin B,(R)-1-phenethylurethane): 1.6 meg/ml; Minimum Inhibitory Concentration ([1]; Streptococcus cellulosac 3313, listed as Monensin B,(R)-1-phenethylurethane): 3.1 meg/ml; Minimum Inhibitory Concentration ([2]; Streptococcus faecium 8043, listed as Monensin B,(R)-1-phenethylurethane): 0.8 meg/ml; Minimum Inhibitory Concentration ([3]; Paceilomyces variotl 25820, listed as Monensin B,(R)-1-phenethylurethane): 3.1 meg/ml; Minimum Inhibitory Concentration (Staph. aureus 6538; Staph. aureus 6538, listed as Monensin B,(R)-1-phenethylurethane): 6.3 meg/ml; Minimum Inhibitory Concentration (Bacillus sp. E 27859; Bacillus sp. E 27859, listed as Monensin B,(R)-1-phenethylurethane): 0.4 meg/ml
CCC1(C2OC(C3OC(O)(COC(=O)Nc4ccc(I)cc4)C(C)CC3C)CC2C)CCC(C2(C)CCC3(CC(O)C(C)C(C(C)C(OC)C(C)C(=O)O)O3)O2)O1 (stereo not drawn) [Monensin A, 4-iodophenylurethane] |  |  |  |  |  |  |  |  |  |  |  |  |  | Average Degree of Infected (A.D.I.) (Eimeria tenella): 0.1
CC[C@@]1([C@@H]2O[C@@H]([C@H]3O[C@@](O)(CO)[C@H](C)C[C@@H]3C)C[C@@H]2C)CC[C@H]([C@]2(C)CC[C@]3(C[C@H](O)[C@@H](C)[C@@H]([C@@H](C)[C@@H](OC)[C@H](C)C(=O)O)O3)O2)O1 [Monensin] |  |  |  |  |  |  |  |  |  |  |  | 89 | 105.3 | Rate of Gas Production, Percent Production of Control Fermentations (rumen fluid; 10 ppm): 85%; Total VFA, Percent Production of Control Fermentations (rumen fluid; 10 ppm): 110.7%
Monensin A, 2-phenylurethane |  |  |  |  |  |  |  |  |  |  |  |  |  | MIC (Treponema hyodysenteriae; 48 hours): 0.4 meg/ml
